Laboratory results: ChEMBL document CHEMBL6074681, “High potency 3-carboxy-2-methylbenzofuran pendrin inhibitors as novel diuretics” (Eur J Med Chem, 2025)
Each block holds one compound with its values, some of them ahead of it. Activity calls are given as the source filed them. No cut-off for these calls is given here.

Assays:
Pendrin [1] = biological target: T1, Pendrin (Homo sapiens, UniProt O43511); experiment: Inhibition of Pendrin (unknown origin) transfected in rat FRT cells assessed as reduction in Cl-/I- ions exchange by YFP fluorescence quenching assay; format: cell-based
T1 sequence (O43511 whole entry): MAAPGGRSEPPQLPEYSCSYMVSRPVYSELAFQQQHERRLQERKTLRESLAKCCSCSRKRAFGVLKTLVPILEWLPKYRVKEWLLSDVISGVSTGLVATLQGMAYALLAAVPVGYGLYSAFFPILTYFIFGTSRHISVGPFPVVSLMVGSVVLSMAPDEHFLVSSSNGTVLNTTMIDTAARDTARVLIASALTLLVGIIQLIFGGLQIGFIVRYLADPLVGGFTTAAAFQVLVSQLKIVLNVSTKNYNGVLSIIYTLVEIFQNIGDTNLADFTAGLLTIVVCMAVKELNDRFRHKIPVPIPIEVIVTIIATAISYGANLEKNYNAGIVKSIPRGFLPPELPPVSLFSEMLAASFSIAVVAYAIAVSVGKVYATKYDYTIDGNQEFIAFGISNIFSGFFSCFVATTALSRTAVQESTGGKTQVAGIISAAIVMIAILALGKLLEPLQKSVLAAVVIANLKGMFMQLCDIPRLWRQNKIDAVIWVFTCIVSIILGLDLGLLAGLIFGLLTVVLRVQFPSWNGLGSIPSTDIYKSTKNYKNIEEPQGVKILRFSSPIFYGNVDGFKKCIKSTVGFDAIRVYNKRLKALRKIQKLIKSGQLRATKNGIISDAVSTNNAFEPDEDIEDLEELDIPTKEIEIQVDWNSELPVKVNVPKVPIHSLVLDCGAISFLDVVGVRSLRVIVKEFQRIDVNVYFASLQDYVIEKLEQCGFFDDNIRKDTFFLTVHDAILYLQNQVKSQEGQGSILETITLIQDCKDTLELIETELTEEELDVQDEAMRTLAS

Pendrin [2] = biological target: T1, Pendrin; experiment: Inhibition of Pendrin (unknown origin)
[3] = biological target: T2, Chloride anion exchanger (Homo sapiens) (UniProt P40879); experiment: Inhibition of SLC26A3 (unknown origin) transfected in rat FRT cells at 25 uM by YFP fluorescence quenching assay; format: cell-based
T2 sequence (whole entry): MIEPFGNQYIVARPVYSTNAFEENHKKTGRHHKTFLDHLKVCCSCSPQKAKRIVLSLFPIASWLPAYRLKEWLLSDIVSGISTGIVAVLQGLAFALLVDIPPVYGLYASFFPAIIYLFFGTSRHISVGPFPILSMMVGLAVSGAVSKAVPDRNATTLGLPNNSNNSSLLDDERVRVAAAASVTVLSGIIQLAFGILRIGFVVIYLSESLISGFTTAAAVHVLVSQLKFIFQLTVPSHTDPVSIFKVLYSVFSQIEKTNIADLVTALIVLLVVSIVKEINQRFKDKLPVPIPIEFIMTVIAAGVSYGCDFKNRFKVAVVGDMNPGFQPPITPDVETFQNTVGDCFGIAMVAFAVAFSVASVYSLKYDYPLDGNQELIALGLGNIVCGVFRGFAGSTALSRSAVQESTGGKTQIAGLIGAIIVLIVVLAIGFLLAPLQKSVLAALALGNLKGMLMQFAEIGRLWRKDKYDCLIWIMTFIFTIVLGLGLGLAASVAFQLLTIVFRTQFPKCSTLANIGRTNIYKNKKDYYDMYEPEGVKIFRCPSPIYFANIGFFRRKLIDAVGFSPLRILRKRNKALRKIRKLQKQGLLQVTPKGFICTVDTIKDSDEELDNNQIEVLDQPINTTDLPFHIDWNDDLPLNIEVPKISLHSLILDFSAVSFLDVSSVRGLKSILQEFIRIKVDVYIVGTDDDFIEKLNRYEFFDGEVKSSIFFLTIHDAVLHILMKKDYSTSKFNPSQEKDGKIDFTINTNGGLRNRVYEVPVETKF

[4] = biological target: T3, Solute carrier family 26 member 6 (Homo sapiens) (UniProt Q9BXS9); experiment: Inhibition of SLC26A6 (unknown origin) transfected in rat FRT cells at 25 uM by YFP fluorescence quenching assay; format: cell-based
T3 sequence (whole entry): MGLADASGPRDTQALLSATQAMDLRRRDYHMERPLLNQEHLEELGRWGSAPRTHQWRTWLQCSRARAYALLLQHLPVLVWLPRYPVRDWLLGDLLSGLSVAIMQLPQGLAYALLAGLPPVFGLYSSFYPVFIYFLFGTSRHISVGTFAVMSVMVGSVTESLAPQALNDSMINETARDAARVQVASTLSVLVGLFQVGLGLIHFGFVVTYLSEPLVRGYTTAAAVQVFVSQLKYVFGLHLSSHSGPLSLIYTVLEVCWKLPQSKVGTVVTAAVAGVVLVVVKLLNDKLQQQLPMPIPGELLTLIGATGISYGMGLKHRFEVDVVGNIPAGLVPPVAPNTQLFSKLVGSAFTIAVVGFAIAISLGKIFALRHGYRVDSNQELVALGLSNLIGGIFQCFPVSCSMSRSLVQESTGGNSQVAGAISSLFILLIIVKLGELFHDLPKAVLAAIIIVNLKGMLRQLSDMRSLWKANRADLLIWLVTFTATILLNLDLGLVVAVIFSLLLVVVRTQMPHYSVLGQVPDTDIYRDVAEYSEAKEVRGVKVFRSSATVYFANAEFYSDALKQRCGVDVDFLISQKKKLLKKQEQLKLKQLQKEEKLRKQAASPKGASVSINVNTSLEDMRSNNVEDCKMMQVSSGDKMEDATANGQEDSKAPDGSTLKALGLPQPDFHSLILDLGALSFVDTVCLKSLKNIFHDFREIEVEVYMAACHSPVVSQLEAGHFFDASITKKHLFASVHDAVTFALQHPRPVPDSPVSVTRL

Pendrin (Homo sapiens) [5] = biological target: T4, Pendrin (Homo sapiens) (UniProt O43511); experiment: Inhibition of Pendrin (unknown origin) transfected in rat FRT cells at 25 uM by YFP fluorescence quenching assay relative to control; format: cell-based
T4 sequence (whole entry): T1 sequence (O43511 whole entry)

[6] = biological target: Cystic fibrosis transmembrane conductance regulator (Homo sapiens) (UniProt P13569); experiment: Inhibition of CFTR (unknown origin) transfected in rat FRT cells at 25 uM by YFP fluorescence quenching assay; format: cell-based
[7] = Cytotoxicity against rat FRT cells assessed as cell viability at 10 uM measured after 24 hrs by Alamar blue dye based assay; format: toxicity
[8] = biological target: T5, Solute carrier family 26 member 6 (Homo sapiens, UniProt Q9BXS9); experiment: Inhibition of SLC26A6 (unknown origin) transfected in rat FRT cells by YFP fluorescence quenching assay; format: cell-based
T5 sequence (Q9BXS9 whole entry): T3 sequence (whole entry)

[9] = Selectivity index, ratio of IC50 for SLC26A6 (unknown origin) transfected in rat FRT cells to IC50 for Pendrin (unknown origin) transfected in rat FRT cells; format: cell-based
Mus musculus [10] = experiment: Effect on urine volume in mouse model at 10 mg/kg, ip measured for 3 hrs; format: functional, organism-based
Mus musculus [11] = experiment: Effect on osmolality in mouse model at 10 mg/kg, ip measured for 3 hrs; format: functional, organism-based
Mus musculus [12] = experiment: Potentiation of Furosemide-induced diuretic effect in mouse model at 10 mg/kg, ip measured for 3 hrs relative to control; format: functional
Mus musculus [13] = experiment: Effect on osmolality in mouse model at 10 mg/kg, ip measured for 3 hrs in presence of Furosemide; format: functional, organism-based
Pendrin (Homo sapiens) [14] = biological target: T4, Pendrin (Homo sapiens); experiment: Potency index, ratio of PDSinh-A01 IC50 to test compound IC50 for Pendrin (unknown origin) transfected in rat FRT cells assessed as reduction in Cl-/I- ions exchange by YFP fluorescence quenching assay; format: cell-based

Cystic fibrosis transmembrane conductance regulator (Homo sapiens), sequence (P13569 whole entry, looked up): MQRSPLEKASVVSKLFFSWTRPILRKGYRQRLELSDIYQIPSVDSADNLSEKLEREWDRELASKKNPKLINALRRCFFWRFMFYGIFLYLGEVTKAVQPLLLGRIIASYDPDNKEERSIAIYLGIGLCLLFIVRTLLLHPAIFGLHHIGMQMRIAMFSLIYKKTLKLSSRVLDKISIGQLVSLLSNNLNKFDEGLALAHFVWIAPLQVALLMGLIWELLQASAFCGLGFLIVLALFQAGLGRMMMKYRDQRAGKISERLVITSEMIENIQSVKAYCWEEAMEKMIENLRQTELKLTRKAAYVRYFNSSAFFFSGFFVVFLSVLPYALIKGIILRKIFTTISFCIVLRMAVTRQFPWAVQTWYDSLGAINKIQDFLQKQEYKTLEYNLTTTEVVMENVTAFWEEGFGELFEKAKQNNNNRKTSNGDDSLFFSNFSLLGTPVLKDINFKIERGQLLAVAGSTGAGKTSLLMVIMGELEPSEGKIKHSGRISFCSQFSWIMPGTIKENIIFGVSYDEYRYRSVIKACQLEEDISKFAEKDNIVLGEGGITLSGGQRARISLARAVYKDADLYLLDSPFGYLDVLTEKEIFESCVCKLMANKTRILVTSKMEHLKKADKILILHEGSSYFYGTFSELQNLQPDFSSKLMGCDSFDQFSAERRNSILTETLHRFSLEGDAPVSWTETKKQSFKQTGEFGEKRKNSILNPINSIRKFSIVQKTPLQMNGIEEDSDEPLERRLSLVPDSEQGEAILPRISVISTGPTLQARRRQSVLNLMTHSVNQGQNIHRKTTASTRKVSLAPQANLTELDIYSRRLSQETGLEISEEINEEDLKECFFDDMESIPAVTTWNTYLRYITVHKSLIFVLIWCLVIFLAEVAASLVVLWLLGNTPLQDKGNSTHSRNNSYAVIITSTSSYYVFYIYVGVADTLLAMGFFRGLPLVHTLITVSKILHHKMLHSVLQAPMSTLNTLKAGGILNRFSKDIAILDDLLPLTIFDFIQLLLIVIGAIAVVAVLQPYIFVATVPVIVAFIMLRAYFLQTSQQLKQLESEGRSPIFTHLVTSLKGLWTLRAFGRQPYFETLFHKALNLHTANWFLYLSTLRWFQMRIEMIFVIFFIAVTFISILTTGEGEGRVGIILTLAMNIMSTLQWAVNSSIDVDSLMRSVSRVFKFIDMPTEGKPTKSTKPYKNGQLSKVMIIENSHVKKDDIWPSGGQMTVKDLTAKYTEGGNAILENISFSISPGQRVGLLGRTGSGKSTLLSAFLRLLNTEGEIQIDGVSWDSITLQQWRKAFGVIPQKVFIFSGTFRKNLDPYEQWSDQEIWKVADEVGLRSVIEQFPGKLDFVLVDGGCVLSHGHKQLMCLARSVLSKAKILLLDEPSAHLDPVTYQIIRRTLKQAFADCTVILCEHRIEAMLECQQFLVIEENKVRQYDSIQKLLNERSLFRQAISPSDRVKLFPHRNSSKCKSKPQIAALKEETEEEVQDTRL

Structure (SMILES): Cn1nc(COc2cccc(F)c2)c2c1CCN(C(=O)Nc1ccc(Cl)cc1)C2
IC50 (Pendrin [2]): 12.5 µM

Structure (SMILES): Cc1oc2ccc(OCc3ccccc3Cl)cc2c1C(=O)O
inhibition [3]: inactive
inhibition [4]: Active; Exhibited Minimal Inhibition
inhibition (Pendrin (Homo sapiens) [5]): 100%
inhibition [6]: Active; Exhibited Minimal Effect
Activity [7]: Non-toxic

Structure (SMILES): Cc1oc2ccc(OCc3cccc(Cl)c3)cc2c1C(=O)O
IC50 (Pendrin [1]): 4.8 µM

Structure (SMILES): Cc1oc2ccc(OCc3ccc(Br)cc3)cc2c1C(=O)O
IC50 (Pendrin [1]): 4.1 µM
Ratio IC50 (Pendrin (Homo sapiens) [14]): 3

Continued by falling IC50 (Pendrin [1]), values first:

IC50 (Pendrin [1]): 8.2 µM
Structure (SMILES): Cc1oc2ccc(OCc3cccc(Br)c3)cc2c1C(=O)O

IC50 (Pendrin [1]): 5 µM
Structure (SMILES): Cc1oc2ccc(OCc3ccc(Cl)cc3)cc2c1C(=O)O

IC50 (Pendrin [1]): 3.1 µM
Structure (SMILES): Cc1oc2ccc(OCc3ccccc3)cc2c1C(=O)O

IC50 (Pendrin [1]): 1.44 µM
Structure (SMILES): Cc1ccccc1COc1ccc2oc(C)c(C(=O)O)c2c1

IC50 (Pendrin [1]): 0.48 µM
inhibition [3]: inactive
inhibition [4]: Active
inhibition (Pendrin (Homo sapiens) [5]): 100%
IC50 [8]: 10 µM
inhibition [6]: Active; Exhibited Minimal Effect
Structure (SMILES): Cc1oc2ccc(OCc3cc(F)ccc3Cl)cc2c1C(=O)O
Ratio IC50 [9]: 20
Activity [7]: Non-toxic
Activity (Mus musculus [10]): No effect
Activity (Mus musculus [11]): No effect
Activity (Mus musculus [12]): 45%
Activity (Mus musculus [13]): No effect
